Legend:
[1] = test system: solid tumors harboring mutations in BRAF, KRAS, or NRAS genes; assay: open-label Phase Ia dose-escalation study; format: in vivo, human; settings: for Median DOR: updated
Procedure: For instance, a completed, open-label, Phase Ia, dose-escalation investigated several doses and schedules of belvarafenib in patients with solid tumors harboring mutations in BRAF, KRAS, or NRAS genes. Efficacy was analyzed for 67 of 72 subjects who had at least 1 post-baseline tumor assessment. […] Fifty-nine (88.06%) subjects developed an event (progression of disease or death), all of which were reported as progressive disease (PD). In addition, median progression-free survival was 11.53 weeks and the 95% confidence interval for the median was [7.12 weeks, 13.38 weeks). […] Median DOR was elevated to 30.18 weeks in 800 mg BID group and 23.99 weeks in total group including DOR of a subject which is 100.29 weeks.

[2] = target: EPHA2 (Homo sapiens, UniProt P29317); assay: panel of 189 kinase assays; format: biochemical
Sequence of EPHA2 (P29317 24-976, species assumed): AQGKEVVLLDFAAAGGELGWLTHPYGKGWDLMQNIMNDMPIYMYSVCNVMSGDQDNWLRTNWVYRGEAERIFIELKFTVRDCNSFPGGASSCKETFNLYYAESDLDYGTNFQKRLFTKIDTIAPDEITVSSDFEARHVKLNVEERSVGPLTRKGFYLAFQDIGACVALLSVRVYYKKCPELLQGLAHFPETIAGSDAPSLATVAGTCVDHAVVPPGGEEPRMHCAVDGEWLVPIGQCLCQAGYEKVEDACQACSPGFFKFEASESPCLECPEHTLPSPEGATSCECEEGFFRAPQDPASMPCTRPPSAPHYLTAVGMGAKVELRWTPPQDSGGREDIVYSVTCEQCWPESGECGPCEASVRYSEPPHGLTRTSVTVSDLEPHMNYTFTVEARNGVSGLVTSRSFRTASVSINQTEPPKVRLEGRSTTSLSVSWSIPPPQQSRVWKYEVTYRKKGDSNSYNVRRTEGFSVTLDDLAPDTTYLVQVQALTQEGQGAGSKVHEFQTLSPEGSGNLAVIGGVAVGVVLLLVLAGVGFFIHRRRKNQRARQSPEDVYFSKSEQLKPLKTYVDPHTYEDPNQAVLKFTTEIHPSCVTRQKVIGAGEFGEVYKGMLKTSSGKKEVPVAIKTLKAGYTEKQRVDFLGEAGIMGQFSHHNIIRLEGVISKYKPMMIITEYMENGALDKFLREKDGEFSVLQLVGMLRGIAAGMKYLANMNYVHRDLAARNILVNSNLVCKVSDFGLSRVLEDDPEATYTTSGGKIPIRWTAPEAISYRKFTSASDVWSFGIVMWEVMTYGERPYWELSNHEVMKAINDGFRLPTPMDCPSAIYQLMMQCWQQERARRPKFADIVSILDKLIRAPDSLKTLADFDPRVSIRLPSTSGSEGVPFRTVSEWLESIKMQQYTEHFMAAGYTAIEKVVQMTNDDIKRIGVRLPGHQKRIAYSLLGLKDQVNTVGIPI

[3] = test system: solid tumors harboring mutations in BRAF, KRAS, or NRAS genes; assay: open-label Phase Ib dose-expansion study; format: in vivo, human
Procedure: In another open-label, Phase Ib, dose-expansion study, belvarafenib was evaluated at a dose of 450 mg BID in patients with solid tumors harboring mutations in BRAF, KRAS, or NRAS genes. Efficacy was analyzed for 59 of 63 subjects who had at least 1 dose of belvarafenib after enrollment and had at least 1 post-baseline tumor assessment. BORR was 11.86% (7/59 subjects), ORR was 6.78% (4/59 subjects) with PR as confirmed best overall response (3 subjects with melanoma and a subject with CRC). […] Fifty (84.75%) of 59 subjects developed an event (progression of disease or death), all of which were reported as PD except 1 death case. In addition, median progression-free survival (PFS) was 7.83 weeks and the 95% confidence interval for the median was [7.26 weeks, 8.26 weeks]. Median duration of response (DOR) of a total response in this study was 15.66 weeks from 7 responders.

[4] = Brain to plasma ratio of belvarafenib, summary over mice and rats; format: in vivo; settings: for Kp: mouse, rat, brain/plasma
Procedure: Pharmacokinetic parameters of belvarafenib were calculated from plasma and brain concentration-time data by a non-compartmental method using Phoenix™ WinNonlin 8.1 (Certara, USA). The peak plasma and brain concentration (Cmax) and the corresponding time (Tmax) were directly obtained from the raw data. The area under the plasma curve (AUClast) was obtained by linear-log trapezoidal summation. Other PK parameters such as AUC from dosing time extrapolated to infinity (AUCinf), half-life (t1/2) and mean residence time (MTRlast) were calculated using WinNonlin. The plasma and brain concentrations of belvarafenib were presented as MEAN±S.D. The brain to plasma (B/P) ratio of Belvarafenib was calculated by dividing AUClast in the brain by AUClast in the plasma.
The brain to plasma ratio is expressed in terms of B/P (nonclinical) defined as the percentage of brain exposure relative to plasma. The B/P for belvarafenib was determined experimentally according to the present disclosure and wherein the B/P of 93% is for mice and the B/P of 138% is for rats. The B/P for DAY101 is for mice was taken from Gampa, et al., “Brain Distribution and Active Efflux of Three pan-RAF Inhibitors: Considerations in the Treatment of Melanoma Brain Metastases”, J Pharmacol Exp Ther 368:446-461, March 2019. The B/P for dabrafenib is for mice and was taken from Mittapalli, et al., “Mechanisms Limiting Distribution of the Threonine-Protein Kinase B-RaFV600E Inhibitor Dabrafenib to the Brain: Implications for the Treatment of Melanoma Brain Metastases”, J Pharmacol Exp Ther 344:[…], 2013. The B/P for vemurafenib is for mice and was taken from Mittapalli, et al., “Impact of P-glycoprotein (ABCB1) and breast cancer resistance protein (ABCG2) on the brain distribution of a novel BRAF inhibitor: vemurafenib (PLX4032)”, J Pharmacol Exp Ther 342:33-40, 2013. […]

[5] = target: discoidin domain receptor tyrosine kinase 1 (DDR1) (Homo sapiens, UniProt Q08345); assay: panel of 189 kinase assays; format: biochemical
Sequence of discoidin domain receptor tyrosine kinase 1 (DDR1) (Q08345 19-913, species assumed): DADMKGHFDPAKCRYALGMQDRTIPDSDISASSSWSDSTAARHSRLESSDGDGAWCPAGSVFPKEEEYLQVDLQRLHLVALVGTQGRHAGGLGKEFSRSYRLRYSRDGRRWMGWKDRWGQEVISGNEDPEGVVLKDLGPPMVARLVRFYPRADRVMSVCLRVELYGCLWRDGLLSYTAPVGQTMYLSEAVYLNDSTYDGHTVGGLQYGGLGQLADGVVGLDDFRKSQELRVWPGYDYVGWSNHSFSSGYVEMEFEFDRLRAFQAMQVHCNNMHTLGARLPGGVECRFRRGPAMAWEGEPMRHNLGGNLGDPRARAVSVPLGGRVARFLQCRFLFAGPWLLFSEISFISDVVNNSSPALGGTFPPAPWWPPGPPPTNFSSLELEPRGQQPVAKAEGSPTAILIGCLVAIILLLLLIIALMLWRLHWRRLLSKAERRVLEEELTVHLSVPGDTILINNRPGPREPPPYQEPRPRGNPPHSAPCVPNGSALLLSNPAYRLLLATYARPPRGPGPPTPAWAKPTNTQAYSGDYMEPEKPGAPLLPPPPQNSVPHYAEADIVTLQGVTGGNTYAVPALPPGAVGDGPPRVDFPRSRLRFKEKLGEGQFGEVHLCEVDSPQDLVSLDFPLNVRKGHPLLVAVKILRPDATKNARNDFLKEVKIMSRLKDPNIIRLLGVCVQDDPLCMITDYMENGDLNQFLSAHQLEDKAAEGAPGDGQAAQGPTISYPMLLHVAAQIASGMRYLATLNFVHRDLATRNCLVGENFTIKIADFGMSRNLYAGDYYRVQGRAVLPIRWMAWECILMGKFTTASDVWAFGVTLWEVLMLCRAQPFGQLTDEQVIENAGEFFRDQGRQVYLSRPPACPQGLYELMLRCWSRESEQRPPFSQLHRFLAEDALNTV

## Cc1ccc2c(Nc3cccc(Cl)c3F)nccc2c1NC(=O)c1csc2c(N)ncnc12 [Belvarafenib, 4-amino-N-(1-((3-chloro-2-fluorophenyl)amino)-6-methylisoquinolin-5-yl)thieno[3,2-d]pyrimidine-7-carboxamide]
[1]; 800 mg BID group
  Median DOR: 30.18 weeks
[1]; 67 evaluable subjects
  Best overall response rate (BORR): 8.96%
  objective response rate (ORR): 4.48%
  subjects who developed an event (progression of disease or death): 88.06%
[1]; BRAF-mutant melanoma subjects (13)
  BORR, subgroup re-analysis: 7.69%
[1]; in vivo
  median progression-free survival: 11.53 weeks
[1]; single subject
  DOR of a subject: 100.29 weeks
[1]; subjects treated with 100 mg QD dose level or above
  Disease control: 50.57%
[1]; total group
  Median DOR: 23.99 weeks
[1]; updated results
  BORR, updated results: 10.45%
  ORR, updated results: 4.48%
[2]
  inhibition at 1 µM: > 90%
[3]; 450 mg BID
  Disease control: 35.59%
  ORR: 6.78%
  median progression-free survival (PFS): 7.83 weeks
  subjects who developed an event (progression of disease or death): 84.75%
[3]; 450 mg BID, 7 responders
  Median duration of response (DOR): 15.66 weeks
[3]; 450 mg BID, 59 evaluable subjects
  BORR: 11.86%
[3]; 2 BRAF-mutant melanoma responders
  Median DOR: 22.49 weeks
[4]; 93% mice, 138% rats
  B/P (nonclinical), percentage of brain exposure relative to plasma: 93-138%
[4]; oral, 30 mg/kg
  Kp: 0.8 to 1.2
[4]; mice and rats, oral administration
  Kp: ~1
[5]
  inhibition at 1 µM: > 90%

— patent US20240173329A1, “BELVARAFENIB FOR USE IN TREATMENT OF BRAIN CANCERS” (Genentech, Inc., priority 2021, published 2024)
